Several values for one entry are separate records, joined by “and”; a condition that tells them apart may be missing. Equal entries are not always repeated. Structures can show the parent of a compound that is named as a salt. Where two headings read alike, the source gives them in different places.
What was measured:
DMS-114 = assay: In vitro tumor cell proliferation, DMS-114; assay type: cell-based, human; conditions: read-out: In vitro Tumor Cell Proliferation (IC50, μM) Lung DMS-114
Protocol: (§1) The proliferation of tumor cells was measured using a sulforhodamine B assay as described in Skehan, P., et al., J. Natl. Cancer Inst. […] Tumor cells were harvested with trypsin-EDTA, cells that excluded trypan blue were counted, added to 96-well plates and incubated overnight at 37° C. Drug was added to the wells following dilution in culture medium. Three days later, the medium was removed and replenished with medium containing fresh drug and incubated an additional 4 days. The cells were then fixed with 0.1 ml 10% trichloroacetic acid for 60 min at 4° C. The plates were rinsed five times with tap water, air-dried and stained for 30 min with 0.4% sulforhodamine B in 1% acetic acid and air-dried.
(§2) Alternatively, the CyQUANT cell proliferation assay was used to quantify tumor cell proliferation. Tumor cells were harvested with trypsin-EDTA, cells that excluded trypan blue were counted, added to 96-well plates and incubated overnight at 37° C. Drug was added to the wells following dilution in culture medium. Three days later the medium was removed and the plates frozen at −80° C. for at least 30 minutes.

DU 145 = assay: In vitro tumor cell proliferation, DU 145; assay type: cell-based, human; conditions: read-out: In vitro Tumor Cell Proliferation (IC50, μM) Prostate DUI45
Protocol: as §1, §2

MDA-MB-231 = assay: In vitro tumor cell proliferation, MDA-MB-231; assay type: cell-based, human; conditions: read-out: In vitro Tumor Cell Proliferation (IC50, μM) Breast MDA-MB-231
Protocol: as §1, §2

cdk4/cyclin D1 = target: T1, cdk4/cyclin D1 (Homo sapiens, UniProt P11802); assay: Cyclin-dependent kinase 4 Assay; assay type: biochemical; conditions: cdk4/cyclin D1, GST-Rb substrate, 10 μM ATP, 30 min at 37° C.; read-out: CDK4 Inhibition IC50
T1 construct: made in house; host or cells: Sf9 insect cells (Bac-to-Bac baculovirus, pFastBac)
T1 sequence (P11802 whole entry): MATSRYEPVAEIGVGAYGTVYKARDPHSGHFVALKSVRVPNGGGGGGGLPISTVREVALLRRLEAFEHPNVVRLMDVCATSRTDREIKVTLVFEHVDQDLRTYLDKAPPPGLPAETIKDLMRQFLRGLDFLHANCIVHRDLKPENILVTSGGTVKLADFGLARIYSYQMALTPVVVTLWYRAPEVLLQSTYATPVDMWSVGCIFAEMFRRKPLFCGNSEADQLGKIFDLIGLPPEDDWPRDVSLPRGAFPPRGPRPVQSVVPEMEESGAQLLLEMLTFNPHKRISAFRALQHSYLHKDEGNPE
T1 sequence (P24385 whole entry partner): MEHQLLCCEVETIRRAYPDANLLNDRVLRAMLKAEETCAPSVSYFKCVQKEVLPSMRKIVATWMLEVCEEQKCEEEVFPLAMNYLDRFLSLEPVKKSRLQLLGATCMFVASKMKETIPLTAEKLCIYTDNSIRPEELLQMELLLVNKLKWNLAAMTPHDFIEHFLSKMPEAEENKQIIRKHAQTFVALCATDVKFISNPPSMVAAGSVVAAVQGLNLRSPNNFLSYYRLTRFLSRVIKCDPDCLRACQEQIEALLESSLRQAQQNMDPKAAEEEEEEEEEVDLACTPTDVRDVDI
Protocol: The IC50 values for cdk-4 inhibition were by the following method:
(§3) The transformed bacteria were grown overnight to saturation, then diluted in YT broth and incubated at 37° C. for 2 h. The protein was induced by incubation with 0.1 mM isopropylthioglycoside for 3 h. Following sedimentation by centrifugation, the cells were lysed by sonication in STE buffer ([…] NaCl, 10 mM Tris, pH 8.0, 1 mM EDTA) containing 10% sarkosyl. Particulate matter was removed by centrifugation and the lysate was incubated with glutathione-Sepharose at 4° C. The beads were washed with kinase buffer and then quantitation of Coomassie blue-stained proteins separated by SDS-PAGE was performed using a protein standard of known concentration.
The cDNA for human cyclin D1 was cloned by RT PCR using […] from MCF-7 cells. […] Bacmid DNA was used to transfect Sf9 insect cells to produce recombinant virus. Following plaque purification of the virus, the viral preparations were amplified until high titer stocks were acheived.
Lysates were prepared by lysis of Sf9 cells coinfected with cdk4 and cyclin D1 in 50 mM HEPES, pH 7.5, 10 mM MgCl2, 1 mM DTT, 0.1 mM phenylmethylsulfonyl fluoride, 5 μg/ml aprotinin, and 5 μg/ml leupeptin using a PARR bomb under 500 p.s.i nitrogen pressure for 5 min at 4° C. Insoluble material was sedimented at 10,000×g for 20 min at 4° C. Glycerol was added to the supernatant to 10% and stored at −80° C. in aliquots.
(§4) Pre-wet Millipore Multiscreen 96-well filter plates (0.65 μm Durapore filters) with 200 μl kinase buffer (50 mM HEPES, pH 7.5, 10 mM MgCl2, 1 mM EGTA). GST-Rb (0.5 μg) bound to glutathione-Sepharose beads is added in 50 μl per well and the solution removed by application of vacuum. […] Add 0.1 μg cdk4/cyclin D1 (insect cell lysate) to initiate assay. Incubate 30 min at 37° C. Terminate reaction by filtration on Millipore Vacuum Manifold. Wash four times with TNEN (20 mM Tris, pH 8.0, 100 mM Na Cl, 1 mM EDTA, 0.5% nonidet P-40). After drying the plates at room temperature, the filter plates were placed in adapter plates (Packard) and 40 μl of Microscint-O® (Packard) was added to each well. Top Seal A film was used to cover the plates before counting in a Top Count Scintillation Counter.

Colo-205 = assay: In vitro tumor cell proliferation, Colo-205; assay type: cell-based, human; conditions: read-out: In vitro Tumor Cell Proliferation (IC50, μM) Colon Colo-205
Protocol: as §1, §2

A549 = assay: In vitro tumor cell proliferation, A549; assay type: cell-based, human; conditions: read-out: In vitro Tumor Cell Proliferation (IC50, μM) Lung A549
Protocol: as §1, §2

MDA-MB-435 = assay: In vitro tumor cell proliferation, MDA-MB-435; assay type: cell-based, human; conditions: read-out: In vitro Tumor Cell Proliferation (IC50, μM) Breast MDA-MB-435
Protocol: as §1, §2

HT-29 = assay: In vitro tumor cell proliferation, HT-29; assay type: cell-based, human; conditions: read-out: In vitro Tumor Cell Proliferation (IC50, μM) Colon HT-29 (converted)
Protocol: as §1, §2
HT-29 is a human colon adenocarcinoma, moderately well-differentiated grade II (HTB 38);

cdk2/cyclin E = target: T2, cdk2/cyclin E (Homo sapiens, UniProt P24941); assay: Cyclin-Dependent Kinase 2 Assay (cdk-2 inhibition); assay type: biochemical; conditions: GST-Rb substrate, 30 min at 30° C.
T2 construct: made in house; host or cells: insect cells (baculovirus co-infection)
Protocol: as §3, §4
GST-Rb as described above for cdk4/cyclin D1
Assay conditions for cdk2/cyclin E were identical to those for cdk4/cyclin D1 including the substrate. The concentration of recombinant cdk2/cyclin E in the assay was 0.1 μg per 100 μl assay. Incubation was for 30 min at 30° C.

PC-3 = assay: In vitro tumor cell proliferation, PC-3; assay type: cell-based, human; conditions: read-out: In vitro Tumor Cell Proliferation (IC50, μM) Prostate PC-3
Protocol: as §1, §2

[1] = Homo sapiens, DMS-114, values marked * (mark not explained)
[2] = values marked * (mark not explained), dihydrochloride
[3] = Homo sapiens, DU-145, values marked * (mark not explained)
[4] = Homo sapiens, MDA-MB-231, values marked * (mark not explained)
[5] = Homo sapiens, COLO 205, values marked * (mark not explained)
[6] = Homo sapiens, A549, values marked * (mark not explained)
[7] = Homo sapiens, HT-29, values marked * (mark not explained)
[8] = Homo sapiens, PC-3, values marked * (mark not explained)
[9] = Homo sapiens, MDA-MB-435, values marked * (mark not explained)

| Compound | IC50 (DMS-114; [1]) | IC50 (DMS-114; [2]) | IC50 (DU 145; [3]) | IC50 (DU 145; [2]) | IC50 (MDA-MB-231; [4]) | IC50 (MDA-MB-231; [2]) | IC50 (cdk4/cyclin D1) | IC50 (Colo-205; [5]) | IC50 (Colo-205; [2]) | IC50 (A549; [6]) | IC50 (MDA-MB-435; [2]) | IC50 (HT-29; [7]) | IC50 (cdk2/cyclin E) | IC50 (PC-3; [8]) | IC50 (PC-3; [2]) | IC50 (MDA-MB-435; [9]) | IC50 (HT-29; [2]) | IC50 (A549; [2]) | IC50 (DU 145; Homo sapiens, DU-145, values without *) |
| --- | --- | --- | --- | --- | --- | --- | --- | --- | --- | --- | --- | --- | --- | --- | --- | --- | --- | --- | --- |
| N[C@H]1CC[C@H](Nc2nc(NCCc3c[nH]c4ccccc34)c3ncn(C4CCCC4)c3n2)CC1 [Example 2, 2-[Trans-(4-aminocyclohexyl)amino]-6-[(3-indolyl)-2-ethylamino]-9-cyclopentylpurine dihydrochloride] | 8.7 µM | 10 µM | 12 µM | 6.7 µM | 6.5 µM | 6.6 µM | 0.6 µM and 0.9 µM | 11 µM | 8.6 µM | 11 µM | 11 µM | 10 µM | 0.14 µM | – | – | – | – | – | – |
| N[C@H]1CC[C@H](Nc2nc(NCCCN3CCOCC3)c3ncn(C4CCCC4)c3n2)CC1 [Example 9, 2-[Trans-(4-aminocyclohexyl)amino]-6-[3-(4-morpholinyl)propylamino]-9-cyclopentylpurine dihydrochloride] | 3.7 µM | 2.8 µM | 4.4 µM | 3.2 µM | 2.7 µM | 2.6 µM | 0.3 µM and 0.4 µM | – | – | – | 6 µM | 5.6 µM | 0.09 µM and 0.15 µM | 4.6 µM | 3.1 µM | 5.2 µM | 5.1 µM | – | – |
| N[C@H]1CC[C@H](Nc2nc(NCCc3ccccn3)c3ncn(C4CCCC4)c3n2)CC1 [Example 12, 2-[Trans-(4-aminocyclohexyl)amino]-6-[2-(2-pyridyl)ethylamino]-9-cyclopentylpurine dihydrochloride] | 15 µM | 11 µM | 10 µM | – | 6 µM | – | 0.3 µM and 0.2 µM | 6.4 µM | 6.2 µM | – | 9.4 µM | 11 µM | 0.22 µM | 7.9 µM | 6.1 µM | 8.7 µM | 12 µM | – | – |
| N[C@H]1CC[C@H](Nc2nc(NNCCO)c3ncn(C4CCCC4)c3n2)CC1 [Example 14, 2-[Trans-(4-aminocyclohexyl)amino]-6-[2-hydroxyethylhydrazino]-9-cyclopentylpurine dihydrochloride] | 22 µM | 20 µM | 17 µM | 21 µM | 19 µM | 22 µM | 0.058 µM and 0.067 µM | 17 µM | 16 µM | 24 µM | 27 µM | 34 µM | 0.046 µM | – | – | 44 µM | 29 µM | 15 µM | – |
| CCC(C)(CO)Nc1nc(N[C@H]2CC[C@H](N)CC2)nc2c1ncn2C1CCCC1 (some centres unmarked) [Example 23, dihydrochloride] | 28 µM | 23 µM | 15 µM | 17 µM | 19 µM | 25 µM | 4 µM and 2.5 µM | – | – | – | 38 µM | 16 µM | 0.27 µM | 16 µM | – | 23 µM | > 20 µM | 10 µM | – |
| CNc1nc(N[C@H]2CC[C@H](N)CC2)nc2c1ncn2C1CCCC1 [Example 28, 2-[Trans-(4-aminocyclohexyl)amino]-6-(methylamino)-9-cyclopentylpurine dihydrochloride] | 1.4 µM | – | 1.7 µM | – | 1.3 µM | 1.6 µM | 0.19 µM and 0.22 µM | 1.9 µM | 2.1 µM | – | 4.5 µM | 1.8 µM | 0.038 µM | – | – | 3.2 µM | – | – | 0.86 µM |
| N[C@H]1CC[C@H](Nc2nc(NCCc3ccncc3)c3ncn(C4CCCC4)c3n2)CC1 [Example 31, 2-[Trans-(4-aminocyclohexyl)amino]-6-[(4-pyridyl)-2-ethylamino]-9-cyclopentylpurine dihydrochloride] | 5.6 µM | – | 6.7 µM | 4.4 µM | 7.4 µM | 8.6 µM | 0.49 µM and 1 µM | 5.6 µM | 6.6 µM | 10 µM | 10 µM | 10 µM | 0.08 µM and 0.06 µM | – | – | – | 7.3 µM | – | – |
| N[C@H]1CC[C@H](Nc2nc(NCC(F)(F)F)c3ncn(C4CCCC4)c3n2)CC1 [Example 49, 2-[Trans-(4-aminocyclohexyl)amino]-6-[2,2,2-trifluoroethylamino]-9-cyclopentylpurine dihydrochloride] | 5.6 µM | – | 4.4 µM | 4.9 µM | 8.6 µM | 6 µM | 2.2 µM | 6.6 µM | 5.5 µM | 2.2 µM | 12 µM | 7.3 µM | 0.09 µM | – | – | 10 µM | 6 µM | – | – |
| N[C@H]1CC[C@H](Nc2nc(NNCC(F)(F)F)c3ncn(C4CCCC4)c3n2)CC1 [Example 52, 2-[Trans-(4-aminocyclohexyl)amino]-6-[2,2,2-trifluoroethylhydrazino]-9-cyclopentylpurine dihydrochloride] | 1.7 µM | – | 2.3 µM | 2.8 µM | 2.7 µM | 3.1 µM | 1.8 µM | 3.1 µM | 3.2 µM | – | 5.1 µM | 3.6 µM | 91 nM and 44 nM (2×) | – | – | 5.6 µM | – | – | – |
